In brackets after ≈: the same amount, converted by molar mass.
System: HeLa S-3 cells
Assay: HeLa S-3 cell growth inhibition test
Type: cell-based
Conditions: Homo sapiens, 96 h, read-out: minimum growth inhibition concentration (MIC)
Description: (a) HeLa S-3 Cell Growth Inhibition Test
A test compound was appropriately diluted with a liquid medium (a minimum essential medium containing a 10% fecal calf serum). The resulting liquid was poured into each well of a 96-well micro titer plate, in an amount of 0.1 ml/well. Then, HeLa S-3 cells were diluted with the same liquid medium so that the cell concentration became 2×10^4 cells/ml, and the resulting liquid was poured into each well of the above plate in an amount of 0.1 ml/well. The resulting plate was allowed to stand in a CO2 gas incubator of 37° C. for 4 days, to effect incubation. After the incubation, the supernatant liquid in each well was removed and fixation by ethanol was effected for 10 minutes. The fixed cells were tinted with a Giemsa's staining solution to determine the minimum growth inhibition concentration (MIC) of test compound for HeLa S-3 cells.

Structure (SMILES)	MIC [µg/mL]
Cc1c2c(c3c([nH]c4ccc(OC(=O)N5CCC(N6CCCCC6)CC5)cc43)c1C)C(=O)N(CCN(C)C)C2=O [compound 75]	0.08 (≈ 0.147 µM)
Cc1cc2c(c3c1[nH]c1ccc(OC(=O)N4CCOCC4)cc13)C(=O)N(CCN(C)C)C2=O [compound 50]	3.13 (≈ 6.95 µM)
Cc1cc2c(c3c1[nH]c1ccc(OC(=O)N4CCCCC4)cc13)C(=O)N(CCN(C)C)C2=O [compound 44]	0.8 (≈ 1.78 µM)
Cc1cc2c(c3c1[nH]c1ccc(OC(=O)N4CCC(N5CCCCC5)CC4)cc13)C(=O)N(CCN(C)C)C2=O [compound 55]	2.5 (≈ 4.7 µM)

Same assay, conditions: Homo sapiens, 96 h; HeLa S-3 cells, 37° C., 4 days, Giemsa's staining; read-out: minimum growth inhibition concentration (MIC)

Structure (SMILES)	MIC [µg/mL]
CN(C)CCN1C(=O)c2cc3[nH]c4cccc(F)c4c3cc2C1=O [compound 96]	6.25 (≈ 19.2 µM)
Cc1cc2c(c3c1[nH]c1ccc(O)cc13)C(=O)N(CCN1CCOCC1)C2=O [compound 88]	2.5 (≈ 6.59 µM)
COc1ccc2[nH]c3c(C)cc4c(c3c2c1)C(=O)N(CCN)C4=O [compound 65]	0.63 (≈ 1.95 µM)
Cc1cc2c(c3c1[nH]c1ccc(O)cc13)C(=O)N(CCN1CCN(C)CC1)C2=O [compound 90]	1.56 (≈ 3.97 µM)
CNCCN1C(=O)c2cc(C)c3[nH]c4ccc(OC)cc4c3c2C1=O [compound 64]	0.63 (≈ 1.87 µM)
Cc1cc2c(c3c1[nH]c1ccc(O)cc13)C(=O)N(CCN(CCO)CCO)C2=O [compound 91]	1.25 (≈ 3.15 µM)
COc1ccc2[nH]c3c(OC)cc4c(c3c2c1)C(=O)N(CCN(C)C)C4=O [compound 40]	0.2 (≈ 0.544 µM)
COc1ccc2c(c1)[nH]c1ccc3c(c12)C(=O)N(CCN(C)C)C3=O [compound 14]	1.56 (≈ 4.62 µM)
Cc1ccc2[nH]c3ccc4c(c3c2c1)C(=O)N(CCN(C)C)C4=O [compound 12]	3.13 (≈ 9.74 µM)
COc1cccc2c1[nH]c1ccc3c(c12)C(=O)N(CCN(C)C)C3=O [compound 13]	3.13 (≈ 9.28 µM)
C=Cc1cc2c(c3c1[nH]c1ccc(OC)cc13)C(=O)N(CCN(C)C)C2=O [compound 92]	0.32 (≈ 0.881 µM)
Cc1cc2c(c3c1S(=O)(=O)c1ccccc1-3)C(=O)N(CCN(C)C)C2=O [compound 48]	2.5 (≈ 6.75 µM)
COc1ccc2[nH]c3ccc4c(c3c2c1)C(=O)N(CCN1CCN(C)CC1)C4=O [compound 34]	3.13 (≈ 7.98 µM)
COc1ccc(Oc2cc3c(c4c2[nH]c2ccc(O)cc24)C(=O)N(CCN(C)C)C3=O)cc1 [compound 85]	0.08 (≈ 0.18 µM)
Cc1cc2c(c3c1[nH]c1ccc(OC(=O)c4ccncc4)cc13)C(=O)N(CCN(C)C)C2=O [compound 83]	0.16 (≈ 0.362 µM)
CN(C)CCN1C(=O)c2c(-c3ccncc3)cc3[nH]c4ccc(O)cc4c3c2C1=O [compound 84]	2.5 (≈ 6.24 µM)
Cc1c2c(c(C)c3c1[nH]c1ccccc13)C(=O)N(CCN(C)C)C2=O [compound 98]	0.8 (≈ 2.39 µM)
CCN(CC)CCN1C(=O)c2cc(Oc3ccccc3)c3[nH]c4ccc(O)cc4c3c2C1=O [compound 89]	0.16 (≈ 0.361 µM)
CCc1cc2[nH]c3ccccc3c2c2c1C(=O)N(CCN(C)C)C2=O [compound 4]	0.2 (≈ 0.596 µM)

Structure (SMILES)	MIC [µg/mL]
Cc1c2c(cc3c1[nH]c1ccccc13)C(=O)N(CCN(C)C)C2=O [compound 97]	3.13 (≈ 9.74 µM)
CN(C)CCN1C(=O)c2cc(Oc3ccc(O)cc3)c3[nH]c4ccc(O)cc4c3c2C1=O [compound 86]	0.16 (≈ 0.371 µM)
CN(C)CCN1C(=O)c2cc(-c3ccccc3)c3[nH]c4ccccc4c3c2C1=O [compound 7]	0.8 (≈ 2.09 µM)
CN(C)CCN1C(=O)c2ccc3[nH]c4cc(Cl)ccc4c3c2C1=O [compound 8]	3.13 (≈ 9.16 µM)
Cc1c2c(c3c([nH]c4ccccc43)c1C)C(=O)N(CCN(C)C)C2=O [compound 5]	0.125 (≈ 0.373 µM)
CN(C)CCN1C(=O)c2ccc3sc4ccccc4c3c2C1=O [compound 66]	2.5 (≈ 7.71 µM)
COc1ccc2[nH]c3cc(OC)c4c(c3c2c1)C(=O)N(CCN(C)C)C4=O [compound 36]	0.8 (≈ 2.18 µM)
COc1cc2c(c3c1[nH]c1ccc(OCc4ccccc4)cc13)C(=O)N(CCN(C)C)C2=O [compound 37]	0.2 (≈ 0.451 µM)
COc1ccc2[nH]c3c(-c4ccc(F)cc4F)cc4c(c3c2c1)C(=O)N(CCN(C)C)C4=O [compound 79]	1.6 (≈ 3.56 µM)
COc1ccc2[nH]c3c(C)cc4c(c3c2c1)C(=O)N(CCNCCO)C4=O [compound 82]	0.4 (≈ 1.09 µM)
CN(C)CCN1C(=O)c2ccc3[nH]c4ccc(F)cc4c3c2C1=O [compound 11]	3.13 (≈ 9.62 µM)
CCn1c2ccc(OC)cc2c2c3c(ccc21)C(=O)N(CCN(C)C)C3=O [compound 20]	1.56 (≈ 4.27 µM)
O=C1c2ccc3[nH]c4ccc(O)cc4c3c2C(=O)N1CCN1CCCCC1 [compound 33]	3.13 (≈ 8.61 µM)
COc1cc2c(cc1Br)[nH]c1c(CN(C)C)cc3c(c12)C(=O)N(CCN(C)C)C3=O [compound 93]	3.2 (≈ 6.76 µM)
CN(C)CCN1C(=O)c2cc(Oc3ccccc3)c3[nH]c4ccc(O)cc4c3c2C1=O [compound 78]	0.04 (≈ 0.0963 µM)
COc1ccc2[nH]c3c(C)cc4c(c3c2c1)C(=O)N(CCN1CCOCC1)C4=O [compound 87]	5 (≈ 12.7 µM)
COc1ccc2[nH]c3c(C)c4c(c(C)c3c2c1)C(=O)N(CCN(C)C)C4=O [compound 99]	0.8 (≈ 2.19 µM)
COc1ccc2[nH]c3c(C4CCC4)cc4c(c3c2c1)C(=O)N(CCN(C)C)C4=O [compound 58]	1.25 (≈ 3.19 µM)
CN(C)CCN1C(=O)c2cc(C3CCCCC3)c3[nH]c4ccc(O)cc4c3c2C1=O [compound 63]	1.25 (≈ 3.08 µM)

The next lines start with the values.

MIC [µg/mL]	Structure (SMILES)
0.8 (≈ 2.39 µM)	Cc1cc2c(c3c4ccccc4n(C)c13)C(=O)N(CCN(C)C)C2=O [compound 6]
0.8 (≈ 2.36 µM)	CN(C)CCN1C(=O)c2cc(O)c3[nH]c4ccc(O)cc4c3c2C1=O [compound 41]
3.13 (≈ 8.25 µM)	COc1ccc2c(c1)c1c3c(ccc1n2C(C)=O)C(=O)N(CCN(C)C)C3=O [compound 21]
2 (≈ 5.11 µM)	CN(C)CCN1C(=O)c2cc(C(F)(F)F)c3[nH]c4ccc(O)cc4c3c2C1=O [compound 67]
3.13 (≈ 8.91 µM)	CCn1c2ccc(O)cc2c2c3c(ccc21)C(=O)N(CCN(C)C)C3=O [compound 29]
0.4 (≈ 1.09 µM)	CC(C)c1cc2c(c3c1[nH]c1ccc(O)cc13)C(=O)N(CCN(C)C)C2=O [compound 52]
1 (≈ 2.72 µM)	COCc1cc2c(c3c1[nH]c1ccc(O)cc13)C(=O)N(CCN(C)C)C2=O [compound 57]
0.16 (≈ 0.422 µM)	CC(=O)Oc1ccc2[nH]c3c(C)cc4c(c3c2c1)C(=O)N(CCN(C)C)C4=O [compound 45]
0.2 (≈ 0.591 µM)	Cc1cc2c(c3c1sc1ccccc13)C(=O)N(CCN(C)C)C2=O [compound 47]
6.25	Cc1cc2c(c3c1[nH]c1ccc(O)cc13)C(=O)N(CC[N+](C)(C)C)C2=O [compound 94]
0.16 (≈ 0.455 µM)	CCN(C)CCN1C(=O)c2cc(C)c3[nH]c4ccc(O)cc4c3c2C1=O [compound 81]
0.31 (≈ 0.817 µM)	CN(C)CCN1C(=O)c2cc(C(C)(C)C)c3[nH]c4ccc(O)cc4c3c2C1=O [compound 54]
0.4 (≈ 1.29 µM)	Cc1cc2c(c3c1[nH]c1ccc(O)cc13)C(=O)N(CCN)C2=O [compound 68]
0.2 (≈ 0.547 µM)	CCCc1cc2c(c3c1[nH]c1ccc(O)cc13)C(=O)N(CCN(C)C)C2=O [compound 51]
2.5 (≈ 7.11 µM)	Cc1c2c(c(C)c3c1[nH]c1ccc(O)cc13)C(=O)N(CCN(C)C)C2=O [compound 100]
3.13 (≈ 9.28 µM)	Cc1cc(O)cc2c1[nH]c1ccc3c(c12)C(=O)N(CCN(C)C)C3=O [compound 46]
0.1 (≈ 0.264 µM)	CCCCc1cc2c(c3c1[nH]c1ccc(O)cc13)C(=O)N(CCN(C)C)C2=O [compound 60]

MIC [µg/mL]	Structure (SMILES)
0.16 (≈ 0.409 µM)	CN(C)CCN1C(=O)c2cc(C3CCCC3)c3[nH]c4ccc(O)cc4c3c2C1=O [compound 72]
0.4 (≈ 1.14 µM)	COc1ccc2c(c1)c1c3c(ccc1n2C)C(=O)N(CCN(C)C)C3=O [compound 19]
1.56 (≈ 3.96 µM)	CNC(=O)n1c2ccc(O)cc2c2c3c(cc(C)c21)C(=O)N(CCN(C)C)C3=O [compound 95]
0.63 (≈ 1.71 µM)	CSc1cc2c(c3c1[nH]c1ccc(O)cc13)C(=O)N(CCN(C)C)C2=O [compound 77]
0.8 (≈ 2.25 µM)	CN(C)CCN1C(=O)c2ccc3c(c2C1=O)c1cc(Cl)ccc1n3C [compound 10]
0.16 (≈ 0.455 µM)	Cc1cc2c(c3c1[nH]c1ccc(O)cc13)C(=O)N(CCNC(C)C)C2=O [compound 76]
0.016 (≈ 0.0455 µM)	Cc1c2c(c3c([nH]c4ccc(O)cc43)c1C)C(=O)N(CCN(C)C)C2=O [compound 26]
0.8 (≈ 2.03 µM)	Cc1cc2c(c3c1[nH]c1ccc(O)cc13)C(=O)N(CCN(C(C)C)C(C)C)C2=O [compound 53]
0.04 (≈ 0.119 µM)	Cc1cc2[nH]c3ccc(O)cc3c2c2c1C(=O)N(CCN(C)C)C2=O [compound 25]
0.8 (≈ 2.28 µM)	COc1ccc2c(c1)[nH]c1c(C)cc3c(c12)C(=O)N(CCN(C)C)C3=O [compound 18]
0.2 (≈ 0.523 µM)	CCN(CC)CCN1C(=O)c2cc(C)c3sc4ccc(O)cc4c3c2C1=O [compound 62]
2.5 (≈ 7.76 µM)	Cc1cc2c(c3c1oc1ccccc13)C(=O)N(CCN(C)C)C2=O [compound 43]
0.08 (≈ 0.218 µM)	CCOc1cc2c(c3c1[nH]c1ccc(O)cc13)C(=O)N(CCN(C)C)C2=O [compound 80]
0.8 (≈ 2.12 µM)	CN(C)CCN1C(=O)c2cc(C3(C)CC3)c3[nH]c4ccc(O)cc4c3c2C1=O [compound 73]
0.4 (≈ 1.09 µM)	COc1ccc2sc3c(C)cc4c(c3c2c1)C(=O)N(CCN(C)C)C4=O [compound 56]
0.2 (≈ 0.569 µM)	COc1ccc2[nH]c3c(C)cc4c(c3c2c1)C(=O)N(CCN(C)C)C4=O [compound 16]
2 (≈ 5.89 µM)	CN(C)CCN1C(=O)c2c(O)cc3[nH]c4ccc(O)cc4c3c2C1=O [compound 35]

From patent publication US5166204A, “Isoindole derivatives and salts thereof and antitumor agent comprising the same” (Toyama Chemical Co., Ltd., priority 1989, dated 1992)
